How the values were obtained:
Raw264.7 cells = assay: CCK-8 cytotoxicity assay, 24 hours; type: cell-based; details: at 40 μM or lower concentrations
Procedure: FIG. 1 Characterization of anti-inflammatory properties of APR-like compounds. (a) Raw264.7 cells were pretreated with APR (20 μM) or new compounds 1 to 10 (5 μM) for 24 h followed by incubation with LPS (100 ng/mL) for an additional 6 h. IL-6 and IL-1β mRNA expression levels were evaluated by qPCR and normalized with GAPDH mRNA level. (b) Raw264.7 cells were pretreated with different doses of AdipoAI for 24 h followed by incubation with LPS (100 ng/mL) for additional 6 h to evaluate dose-dependency of AdipoAI in inhibiting IL-6 and IL-1β mRNA expression levels by qRT-PCR and normalized with GAPDH mRNA level. (c) Evaluation of cytotoxicity of APR, AdipoAI and compound 5 by CCK8 assay in Raw264.7 cells treated for 24 hours. (d) BMMs were pretreated with APR (20 μM), AdipoAI (5 μM) or compound 5 (5 μM) for 24 h followed by incubation with LPS (100 ng/ml) for additional 6 h for the measurement of IL-6 and IL-1β mRNA expression levels by qRT-PCR and normalized with GAPDH mRNA level. Data were expressed as the mean±SEM at five biological independent experiments. One-way ANOVA test for multiple-group comparisons, *P<0.05, significant differences between each indicated group.
Raw264.7 cells were seeded at 2×10^3 cells/well in 96-well plates for 16 hours and then serum-starved for 6 hours. Cells were maintained in DMEM in the presence of different concentrations of APR (AdipoGen Life Sciences, San Diego, CA, USA) and compounds for 24 hours. […] The detailed group assignment is shown in the individual figure legends.

[1] = tested on: DIO mice with experimental periodontitis; assay: Experimental periodontitis in DIO mice; type: in vivo; details: for numbers of osteoclasts on alveolar bone (TRAP stain): compared to vehicle-treated DIO mice; for IL-6 and CCL-2 gene expression in periodontal epithelium: compared to vehicle-treated group; for bodyweight / decrease in fasting blood glucose level: two weeks oral gavage, AdipoRon 50 mg/kg, AdipoAI 25 mg/kg, vs vehicle; for average alveolar bone loss at 6 sites (CEJ-ABC distance): two weeks, vehicle 372.3±27.3 μm
Procedure: FIG. 19 AdipoRon and AdipoAI attenuate experimental periodontitis in diet-induced obesity (DIO). (A) Bodyweight of vehicle, AdipoRon and AdipoAI-treated DIO mice with experimental periodontitis. (B) Fasting blood glucose in DIO mice with experimental periodontitis treated with vehicle, AdipoRon and AdipoAI. (C) A representative 3-dimensional model of alveolar bone in DIO mice with experimental periodontitis. […] The distance from ABC to CEJ in four groups is shown in (D) (n≥7). (E) Representative TRAP-stained alveolar bone in DIO mice with experimental periodontitis. Black arrow, osteoclast (scale bar=200 μm). The number of osteoclasts attached to the alveolar bone surface was calculated (F). (G) Relative expression of IL-6 and CCL2 genes in gingival tissue from DIO mice with experimental periodontitis was analyzed using real-time PCR. The animals were treated AdipoRon and AdipoAI or vehicle alone (n≥5).
DIO (C57BL/6J background, Jax #380050) were purchased from the Jackson Laboratory (Bar Harbor, ME, http://www.jax.org/). After acclimatization, animals were fed a high-fat diet (containing 60% kcal from fat, Jackson Laboratory) from 6 weeks of age onwards. Experimental periodontitis was induced in 20-week-old mice by 5-0 silk suture as described previously 26. Briefly, animals were anesthetized using ketamine/xylazine and buprenorphine and the sutures were placed around the maxillary second molar and tied on the palatal side for 2 weeks. The ethical approval of this study was provided by the IACUC of UCSD. The care and use of laboratory animals and Animal Research was performed in accordance with NIH guidelines.
AdipoRon (50 mg/kg body weight)^23, 24 and the AdipoAI (25 mg/kg body weight)^25 were administered by oral gavage concurrently with establishment of experimental periodontitis for 2 weeks.
Gingival tissues from the palatal side were sampled and immediately stored in liquid nitrogen until further analysis. The skulls were scanned by the Bruker Skyscan micro-CT system (Bruker, Kontich, Belgium). Alveolar bone loss, defined as the distance between the cementoenamel junction (CEJ) to the alveolar bone crest (ABC), was measured at six sites (mesio-buccal, mid-buccal, disto-buccal, mesio-palatal, mid-palatal, and disto-palatal) using Ctan software (http://bruker-microct.com/products/downloads.htm) as previously reported^26. Periodontal hard tissue sections were stained with Acid Phosphatase, Leukocyte (TRAP) Kit (Sigma, St. Louis, MO, USA) according to the manufacturer's instructions.
Total RNA was isolated from cell cultures and gingival soft tissues using TriZol reagent (Life Technologies, Carlsbad, CA, USA) according to the manufacturer's instructions^24. Reverse transcription was performed using the PrimeScript RT Master Mix (Takara Bio, Otsu, Japan) and real-time-qPCR analyses were performed using SYBR-Green Real-Time PCR Master Mix (Takara Bio, Otsu, Japan) as described earlier^27.

[2] = tested on: LPS-stimulated RAW 264.7 macrophages; assay: qPCR of cytokine mRNA in LPS-stimulated RAW 264.7 macrophages; type: cell-based; details: for expression of anti-inflammatory cytokine IL-10: LPS-induced macrophages; for IL-10 expression, longer treatments / IL-10 mRNA expression, treatment for 18 h or less: macrophages; for IL-10 expression, longer treatments: longer than 18 h; for IL-10 mRNA expression, treatment for 18 h or less: no LPS

Compound | cytotoxic effects (CCK-8) (Raw264.7 cells) | numbers of osteoclasts on alveolar bone (TRAP stain) [1] | IL-6 and CCL-2 gene expression in periodontal epithelium [1] | bodyweight [1] | decrease in fasting blood glucose level [1] [%] | average alveolar bone loss at 6 sites (CEJ-ABC distance) [1] [μm] | expression of anti-inflammatory cytokine IL-10 [2] | IL-10 expression, longer treatments [2] | IL-10 mRNA expression, treatment for 18 h or less [2] | TNF-α expression levels ([2]; LPS-induced Raw264.7 macrophage, BMMs or PEMs (data not shown))
O=C(COc1ccc(C(=O)c2ccccc2)cc1)NC1CCN(Cc2ccccc2)CC1 [AdipoRon, reference compound] | neither of the 3 small molecules mediated significant cytotoxic effects | significantly decreased numbers of osteoclasts | significantly attenuated the IL-6 and CCL-2 gene expression | decreased significantly | 73.3 | 344.5±22.2 | downregulated expression of the anti-inflammatory cytokine IL-10 | decreased IL-10 expression | increased IL-10 mRNA expression | 
COc1ccc(CN2CCC(NC(=O)COc3ccc(C(=O)c4ccc(Cl)cc4)cc3)CC2)cc1 [Compound 3] | neither of the 3 small molecules mediated significant cytotoxic effects | significantly decreased numbers of osteoclasts | significantly attenuated the IL-6 and CCL-2 gene expression | decreased significantly | 75.3 | 328.5±19.9 | downregulated expression of the anti-inflammatory cytokine IL-10 | decreased IL-10 expression | increased IL-10 mRNA expression | did not inhibit TNF-α expression levels
